The source of these data is article PMC3264828 (European Journal of Medicinal Chemistry, 2011).

The target of assay [1] is D1-like receptors (Sus scrofa, UniProt P50130). The experiment in a line: Competition binding with [3H]SCH-23390 in porcine striatal homogenates. Conditions: porcine striatal preparations; for decrease in D1 affinity compared to 2: relative to DOX (2).
The target of assay [2] is D1 dopamine receptor mutant L190A (Homo sapiens, UniProt P21728, L190A). The experiment in a line: Mutagenesis experiments of the D1 dopamine receptor. It is filed as binding. Conditions: residue in extracellular loop 2; to be published elsewhere.
For assay [3], the system named is in vivo model of Parkinson's disease. The conditions noted are these: African green monkeys; cited from earlier work.
In assay [4] the test system is D1-like receptors. The conditions noted are these: cited from earlier work.
In a further assay the test system is D1 receptor. The conditions noted are these: cited from earlier work.
Another assay relates to prefrontal cortex. Conditions: cited from earlier work.
The test system of the next assay is aged monkeys. The conditions noted are these: cited from earlier work.
The subject of the next assay is D1. Conditions: 2-substituted DHX analogues; cited from earlier work.

Molecules are shown by their SMILES.

Sequence of D1-like receptors (Sus scrofa, UniProt P50130) (P50130 whole entry): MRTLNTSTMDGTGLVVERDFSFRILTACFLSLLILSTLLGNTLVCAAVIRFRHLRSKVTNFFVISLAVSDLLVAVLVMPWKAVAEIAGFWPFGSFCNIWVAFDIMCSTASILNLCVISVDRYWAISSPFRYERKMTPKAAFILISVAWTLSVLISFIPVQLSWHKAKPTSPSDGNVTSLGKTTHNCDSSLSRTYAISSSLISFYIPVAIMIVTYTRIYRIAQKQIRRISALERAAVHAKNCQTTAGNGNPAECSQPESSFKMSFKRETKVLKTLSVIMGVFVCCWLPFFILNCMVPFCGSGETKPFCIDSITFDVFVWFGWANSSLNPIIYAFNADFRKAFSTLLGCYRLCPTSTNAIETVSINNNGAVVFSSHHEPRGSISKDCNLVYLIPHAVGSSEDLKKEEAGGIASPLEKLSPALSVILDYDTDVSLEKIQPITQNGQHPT
Sequence of D1 dopamine receptor mutant L190A (P21728 whole entry L190A): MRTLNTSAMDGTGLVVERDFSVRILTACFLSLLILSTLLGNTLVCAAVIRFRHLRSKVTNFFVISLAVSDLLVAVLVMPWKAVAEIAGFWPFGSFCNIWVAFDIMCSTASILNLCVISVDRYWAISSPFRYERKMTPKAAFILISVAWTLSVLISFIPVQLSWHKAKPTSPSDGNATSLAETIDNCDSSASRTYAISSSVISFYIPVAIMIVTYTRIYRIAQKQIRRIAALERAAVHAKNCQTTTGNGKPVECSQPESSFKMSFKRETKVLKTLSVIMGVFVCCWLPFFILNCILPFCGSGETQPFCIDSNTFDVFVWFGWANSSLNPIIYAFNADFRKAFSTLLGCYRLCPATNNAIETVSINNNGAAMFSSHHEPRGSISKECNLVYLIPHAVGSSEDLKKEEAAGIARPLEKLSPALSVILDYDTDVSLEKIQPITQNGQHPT

For `Cc1ccc2c(c1)[C@@H]1c3cc(O)c(O)cc3OC[C@H]1NC2.Cl` (racemic) [5a, (±)-Trans-11-methyl-2,3-dihydroxy-6a,7,8,12b-tetrahydro-6H-chromeno[3,4-c]isoquinoline hydrobromide], on D1-like receptors [1], the “decrease in D1 affinity compared to 2” value was “nearly six-fold decrease”. In assay [2], the “affinity at mutant L190A of the D1 dopamine receptor” value is given as “significantly increased affinity”.

With `Cl.Oc1cc2c(cc1O)[C@H]1c3cc(C(F)(F)F)ccc3CN[C@@H]1CO2` (racemic) [5d, (±)-Trans-2,3-dihydroxy-11-trifluoromethyl-6a,7,8,12b-tetrahydro-6H-chromeno[3,4-c]isoquinoline hydrochloride], at D1-like receptors [1] (relative to 5a), the “decrease in D1 affinity compared to the methyl substituted compound 5a” value is “almost four-fold decrease”. In addition, the “decrease in D1 affinity compared to 2” value at D1-like receptors [1] is 22 fold.

Take `Oc1cc2c(cc1O)[C@H]1c3ccccc3CN[C@@H]1CC2` (relative stereo) [compound 1, trans-10,11-dihydroxy-5,6,6a,7,8,12b-hexahydrobenzo[a]phenanthridine]: the “therapeutic potential in an in vivo model of Parkinson's disease” value in assay [3] is recorded as “significant therapeutic potential”. The “affinity for D1-like receptors over D2-like receptors” value with D1-like receptors [4] is listed as “ten-fold higher affinity”. In addition, in the assay on D1 receptor, the “dopamine D1 agonist character” value is recorded as “potent dopamine D1 full agonist”. The “blood flow in the prefrontal cortex” value in the assay with prefrontal cortex is reported as “increase blood flow in the prefrontal cortex”. Besides, the working memory entry in the assay on aged monkeys is listed as “improve working memory in aged monkeys”.

With `Oc1cc2c(cc1O)C1c3ccccc3CNC1CO2` (single isomer, unassigned; (+)) [(+)-2], the “efficacy for activation of the D1 receptor” value in the assay with D1 receptor (compared with dopamine) is “higher efficacy than dopamine”.

For `Cc1ccc2c(c1)[C@@H]1c3cc(O)c(O)cc3CC[C@H]1NC2` [compound 3], in the assay with D1, the “D1 affinity in comparison to DHX” value was “did not significantly reduce the affinity”. The “affinity at mutant L190A of the D1 dopamine receptor” value in assay [2] is listed as “but not for 3”.

Regarding `CCc1ccc2c(c1)[C@@H]1c3cc(O)c(O)cc3CC[C@H]1NC2` [compound 4], in the assay on D1, the “D1 affinity in comparison to DHX” value is “affinity lower than the unsubstituted compound”.
